From patent US7582471B2, “Biosensor for the detection of protein kinase A, and kit comprising the same” (Korea Institute of Science and Technology, priority 2006, dated 2009)
Where no end group is shown, it is not given here. The star is where a group is joined. Biotin = O=C1N[C@H]2[C@H](CS[C@H]2CCCCC(=O)*)N1

Legend:
PKA [1] = molecular target: T1, PKA (Homo sapiens, UniProt P17612); conditions: 132 nM PKA, even at the highest ATP concentration applied
Procedure: The effect of ATP on the PKA-PKI binding was also evaluated using an SPR analyzer, Biacore 3000 biosensor system (Biacore, U.S.A.). The surface of a CM5 sensor chip (Biacore, Applied Biosystems, U.S.A.) was activated with N-ethyl-N′-(3-dimethylaminopropyl)carbodiimide (EDC) and N-hydroxysuccinimide (NHS), and 50 μg/mL streptavidin was applied thereto, to immobilize on the surface of sensor via an amine-coupling method. […] The mixture solutions of 132 nM PKA and varying concentrations of ATP were applied at the rate of 30 μM/min for 100 seconds, and the buffer solution was then applied for 200 seconds, to obtain sensorgrams.

PKA [2] = molecular target: T1, PKA; conditions: read-out: affinity for PKA; cited from earlier work

Substance: Biotin-LRRAALG [biotin-Ala-kemptide]
- binding of PKA to immobilized peptide (SPR) (PKA [1]): not observed
- Kd (PKA [2]): 10 µM
